Data reported in publication PMC10127221 (ACS Chemical Biology, 2023).
pIC50, pKi: −log10 of the molar value. Entries after “also recorded” stand apart in the source; their conditions may differ. Read-outs that look alike come from different tables or passages of the source. One block for each compound: values may come before it.

How the values were obtained:
[1] = molecular target: T1, CamA (Clostridioides difficile, UniProt Q183J3); test: CamA methylation inhibition assay; format: biochemical; settings: for inhibition of CamA activity at single concentration / inhibition of CamA activity (selectivity panel): 10 μM compound; for inhibition of CamA activity at single concentration: 50 nM CamA, 40 μM SAM (Figure 1B); for inhibition of CamA activity (selectivity panel): 40 μM SAM (Figure 4A); for fold difference in CamA inhibition between 11a and 11b: 11a more potent than 11b
T1 sequence (Q183J3 1-577): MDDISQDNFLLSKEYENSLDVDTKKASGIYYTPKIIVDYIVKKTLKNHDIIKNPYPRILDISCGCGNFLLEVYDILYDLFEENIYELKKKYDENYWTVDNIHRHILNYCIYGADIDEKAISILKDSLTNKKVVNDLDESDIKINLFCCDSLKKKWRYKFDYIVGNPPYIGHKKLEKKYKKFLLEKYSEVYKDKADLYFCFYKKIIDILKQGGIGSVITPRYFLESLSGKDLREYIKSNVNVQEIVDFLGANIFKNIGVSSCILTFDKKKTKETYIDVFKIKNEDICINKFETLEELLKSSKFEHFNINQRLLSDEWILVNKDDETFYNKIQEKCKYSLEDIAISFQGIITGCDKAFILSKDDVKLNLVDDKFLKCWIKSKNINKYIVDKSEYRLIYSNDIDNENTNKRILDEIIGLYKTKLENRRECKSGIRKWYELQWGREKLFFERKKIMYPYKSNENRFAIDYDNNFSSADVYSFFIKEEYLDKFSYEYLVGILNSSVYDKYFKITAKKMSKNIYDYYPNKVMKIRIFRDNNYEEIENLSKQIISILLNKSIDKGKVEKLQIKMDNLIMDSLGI

[2] = molecular target: PRMT3 (Homo sapiens, UniProt O60678); test: PRMT3 inhibition, fluorescence-based SAHH-coupled assay; format: biochemical
[3] = molecular target: CcrM (Caulobacter vibrioides, UniProt P0CAW2); test: Compound selectivity assay; format: biochemical; settings: read-out: inhibition of CcrM activity, 10 μM compound, 40 μM SAM (Figure 4B)
[4] = molecular target: T2, Dam (Escherichia coli, UniProt P0AEE8); test: Compound selectivity assay; format: biochemical; settings: read-out: inhibition of Dam activity, 10 μM compound, 40 μM SAM (Figure 4C)
T2 sequence (P0AEE8 1-278): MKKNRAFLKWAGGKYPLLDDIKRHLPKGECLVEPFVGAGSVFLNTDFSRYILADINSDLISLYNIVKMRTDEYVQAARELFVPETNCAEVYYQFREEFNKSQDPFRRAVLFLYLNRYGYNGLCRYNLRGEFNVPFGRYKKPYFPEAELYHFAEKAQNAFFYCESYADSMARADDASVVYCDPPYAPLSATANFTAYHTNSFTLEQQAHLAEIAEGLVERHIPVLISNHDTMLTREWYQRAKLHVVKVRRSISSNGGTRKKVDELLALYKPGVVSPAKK

[5] = molecular target: MettL3–MettL14 (Homo sapiens, UniProt Q86U44); test: Compound selectivity assay; format: biochemical; settings: for inhibition at 10 µM: read-out: inhibition of MettL3–MettL14 activity
[6] = molecular target: MettL5–Trm112 (Homo sapiens, UniProt Q9NRN9); test: Compound selectivity assay; format: biochemical; settings: read-out: inhibition of MettL5–Trm112 activity
[7] = molecular target: T3, MettL16 (Homo sapiens, UniProt Q86W50); test: Compound selectivity assay; format: biochemical; settings: read-out: inhibition of MettL16 activity, 10 μM compound, 160 μM SAM (Figure 4F)
T3 sequence (Q86W50 1-562): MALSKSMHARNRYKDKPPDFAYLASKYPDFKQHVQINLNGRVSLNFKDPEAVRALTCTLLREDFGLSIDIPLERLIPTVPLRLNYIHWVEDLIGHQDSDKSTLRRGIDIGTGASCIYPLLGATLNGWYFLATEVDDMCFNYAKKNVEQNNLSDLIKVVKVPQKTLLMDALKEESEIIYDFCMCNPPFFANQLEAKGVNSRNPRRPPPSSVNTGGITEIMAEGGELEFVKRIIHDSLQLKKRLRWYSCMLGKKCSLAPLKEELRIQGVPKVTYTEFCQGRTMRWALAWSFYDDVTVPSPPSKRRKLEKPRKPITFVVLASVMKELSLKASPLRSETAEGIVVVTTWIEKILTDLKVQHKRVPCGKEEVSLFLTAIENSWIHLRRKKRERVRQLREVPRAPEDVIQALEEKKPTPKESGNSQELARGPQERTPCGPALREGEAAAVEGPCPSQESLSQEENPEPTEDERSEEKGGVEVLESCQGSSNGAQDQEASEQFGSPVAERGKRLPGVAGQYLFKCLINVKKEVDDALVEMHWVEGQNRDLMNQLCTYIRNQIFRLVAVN

[8] = molecular target: PCIF1 (Homo sapiens, UniProt Q9H4Z3); test: Compound selectivity assay; format: biochemical; settings: read-out: inhibition of PCIF1 activity
[9] = molecular target: PRMT1 (Homo sapiens, UniProt Q99873); test: PRMT1 inhibition, fluorescence-based SAHH-coupled assay; format: biochemical; settings: for pIC50: IC50 PRMT1, 0.1 μM PRMT1, 10 μM SAM, 5 μM H4 peptide (1–21)
[10] = molecular target: T1, CamA; settings: read-out: Km of CamA for SAM; previous measurements; cited from earlier work
[11] = system: MettL5; settings: read-out: SAM Km of MettL5; cited from earlier work

Chain of MettL3–MettL14 (Q86U44 whole entry): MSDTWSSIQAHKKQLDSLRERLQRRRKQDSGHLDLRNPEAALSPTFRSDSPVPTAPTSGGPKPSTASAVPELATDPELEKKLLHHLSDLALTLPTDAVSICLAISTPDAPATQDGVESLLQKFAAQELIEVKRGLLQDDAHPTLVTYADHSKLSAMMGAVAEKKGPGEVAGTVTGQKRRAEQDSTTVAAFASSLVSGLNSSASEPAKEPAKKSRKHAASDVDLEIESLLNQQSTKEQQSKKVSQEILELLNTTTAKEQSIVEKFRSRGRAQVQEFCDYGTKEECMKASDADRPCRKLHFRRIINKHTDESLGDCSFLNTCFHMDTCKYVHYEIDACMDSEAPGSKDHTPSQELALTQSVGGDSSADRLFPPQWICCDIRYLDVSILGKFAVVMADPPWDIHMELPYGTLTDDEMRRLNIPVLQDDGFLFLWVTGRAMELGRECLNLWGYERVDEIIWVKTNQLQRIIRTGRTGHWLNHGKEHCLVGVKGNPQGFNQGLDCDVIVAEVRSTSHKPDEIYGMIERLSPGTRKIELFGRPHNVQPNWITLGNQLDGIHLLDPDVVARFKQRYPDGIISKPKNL
Chain of MettL3–MettL14 (Q9HCE5 whole entry partner): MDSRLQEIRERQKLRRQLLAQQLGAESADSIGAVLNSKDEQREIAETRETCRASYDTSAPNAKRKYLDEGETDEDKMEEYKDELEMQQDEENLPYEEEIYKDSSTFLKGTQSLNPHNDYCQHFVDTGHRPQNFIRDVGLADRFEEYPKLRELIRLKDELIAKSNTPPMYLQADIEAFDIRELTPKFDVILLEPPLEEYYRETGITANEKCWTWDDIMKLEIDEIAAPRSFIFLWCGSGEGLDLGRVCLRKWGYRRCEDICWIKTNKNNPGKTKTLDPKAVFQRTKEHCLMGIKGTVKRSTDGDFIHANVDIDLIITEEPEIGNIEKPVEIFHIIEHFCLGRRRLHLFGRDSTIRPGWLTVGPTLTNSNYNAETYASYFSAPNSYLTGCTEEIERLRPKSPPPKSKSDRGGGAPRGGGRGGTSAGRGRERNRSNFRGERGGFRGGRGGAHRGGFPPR
Chain of PRMT3 (O60678 211-531): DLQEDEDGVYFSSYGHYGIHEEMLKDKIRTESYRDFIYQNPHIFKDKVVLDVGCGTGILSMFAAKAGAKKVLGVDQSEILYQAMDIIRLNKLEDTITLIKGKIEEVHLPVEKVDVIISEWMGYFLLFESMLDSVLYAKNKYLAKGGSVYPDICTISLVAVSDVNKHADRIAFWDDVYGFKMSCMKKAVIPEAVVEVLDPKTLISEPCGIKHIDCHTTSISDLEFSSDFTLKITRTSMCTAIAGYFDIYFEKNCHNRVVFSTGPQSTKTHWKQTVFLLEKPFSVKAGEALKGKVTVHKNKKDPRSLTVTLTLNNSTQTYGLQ
Chain of MettL5–Trm112 (Q9NRN9 whole entry): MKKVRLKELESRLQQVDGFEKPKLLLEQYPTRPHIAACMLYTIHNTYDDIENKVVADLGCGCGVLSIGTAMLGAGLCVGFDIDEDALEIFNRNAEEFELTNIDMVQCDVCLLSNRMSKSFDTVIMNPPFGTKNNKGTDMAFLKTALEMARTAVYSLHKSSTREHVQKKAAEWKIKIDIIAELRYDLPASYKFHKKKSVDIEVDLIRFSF
Chain of MettL5–Trm112 (Q9UI30 whole entry partner): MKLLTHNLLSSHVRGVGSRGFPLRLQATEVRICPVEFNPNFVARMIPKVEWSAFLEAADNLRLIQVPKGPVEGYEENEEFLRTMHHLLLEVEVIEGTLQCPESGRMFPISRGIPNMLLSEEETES
Chain of PRMT1 (Q99873 10-352 isoform Q99873-3): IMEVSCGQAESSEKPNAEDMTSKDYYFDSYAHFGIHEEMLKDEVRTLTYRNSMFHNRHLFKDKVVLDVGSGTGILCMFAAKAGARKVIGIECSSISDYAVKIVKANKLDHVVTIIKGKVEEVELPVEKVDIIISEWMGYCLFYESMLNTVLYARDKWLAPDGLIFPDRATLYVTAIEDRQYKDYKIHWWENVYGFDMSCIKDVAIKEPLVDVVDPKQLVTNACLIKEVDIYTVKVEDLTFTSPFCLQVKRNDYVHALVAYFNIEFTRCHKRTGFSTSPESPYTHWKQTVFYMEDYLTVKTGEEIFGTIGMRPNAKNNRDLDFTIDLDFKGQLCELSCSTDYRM
Chain of PCIF1 (Q9H4Z3 whole entry): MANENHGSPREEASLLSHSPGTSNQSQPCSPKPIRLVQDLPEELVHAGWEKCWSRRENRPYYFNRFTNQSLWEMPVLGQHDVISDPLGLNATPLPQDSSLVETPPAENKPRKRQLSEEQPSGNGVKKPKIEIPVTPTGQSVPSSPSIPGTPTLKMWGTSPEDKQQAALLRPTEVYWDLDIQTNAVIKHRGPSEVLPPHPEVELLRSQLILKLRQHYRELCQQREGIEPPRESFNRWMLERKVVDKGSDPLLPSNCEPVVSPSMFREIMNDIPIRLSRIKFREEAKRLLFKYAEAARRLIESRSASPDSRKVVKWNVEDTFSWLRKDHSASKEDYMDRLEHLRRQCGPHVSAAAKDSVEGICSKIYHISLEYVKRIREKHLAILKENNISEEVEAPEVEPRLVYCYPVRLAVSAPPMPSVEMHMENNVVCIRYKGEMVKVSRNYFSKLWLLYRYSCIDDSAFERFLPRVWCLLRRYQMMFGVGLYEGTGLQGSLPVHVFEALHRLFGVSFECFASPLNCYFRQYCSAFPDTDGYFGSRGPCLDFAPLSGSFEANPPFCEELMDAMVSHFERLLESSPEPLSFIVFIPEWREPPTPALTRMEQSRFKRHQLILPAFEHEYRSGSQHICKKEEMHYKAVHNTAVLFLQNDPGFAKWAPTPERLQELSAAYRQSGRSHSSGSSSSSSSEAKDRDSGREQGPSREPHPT
Chain of CcrM (P0CAW2 whole entry): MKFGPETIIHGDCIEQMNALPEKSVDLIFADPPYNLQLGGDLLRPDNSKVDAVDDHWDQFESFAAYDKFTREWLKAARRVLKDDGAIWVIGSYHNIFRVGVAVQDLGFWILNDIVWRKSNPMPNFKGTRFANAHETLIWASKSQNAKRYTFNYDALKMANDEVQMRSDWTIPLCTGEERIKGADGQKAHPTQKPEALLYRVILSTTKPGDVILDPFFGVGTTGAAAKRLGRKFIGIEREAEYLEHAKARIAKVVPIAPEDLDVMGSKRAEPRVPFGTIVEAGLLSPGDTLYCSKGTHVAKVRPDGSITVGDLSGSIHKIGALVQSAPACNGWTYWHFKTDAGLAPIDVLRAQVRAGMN

Structure (SMILES): N=C(NCCCSC[C@H]1O[C@@H](n2cnc3c(N)ncnc32)[C@H](O)[C@@H]1O)NCc1ccccc1 [6g]
inhibition of CamA activity at single concentration [1]: ~10%

Structure (SMILES): N=C(NCCSC[C@H]1O[C@@H](n2cnc3c(NCCCc4ccccc4)ncnc32)[C@H](O)[C@@H]1O)NCC1CCCCC1 [11a, 1-(cyclohexylmethyl)-3-(2-((((2S,3S,4R,5R)-3,4-dihydroxy-5-(6-((3-phenylpropyl)amino)-9H-purin-9-yl)tetrahydrofuran-2-yl)methyl)thio)ethyl)guanidine]
pIC50 [1]: ~6.82
pKi [1]: 7.05
inhibition of CamA activity (selectivity panel) [1]: ≥ 80%
fold difference in CamA inhibition between 11a and 11b [1]: 1.8 ×
fold improvement of CamA inhibition relative to 6e ([1]; ratio of IC50 values): 10 ×
fold improvement of CamA inhibition relative to 7 ([1]; ratio of IC50 values): 5 ×
mode of CamA inhibition (Lineweaver–Burk plot) ([1]; with respect to SAM): competitive inhibition; also recorded: competitive inhibitor of SAM
pIC50 [9]: 4.85
fold reduction of PRMT1 inhibition from that of 6e ([9]; ratio of IC50 values): ~116 ×
pIC50 [2]: < 4.00
inhibition at 10 µM [5]: ≤ 50%
inhibition at 10 µM [6]: ≤ 50%
inhibition at 10 µM [8]: ≤ 50%

Structure (SMILES): C[S+](CC[C@H](N)C(=O)[O-])C[C@H]1O[C@@H](n2cnc3c(N)ncnc32)[C@H](O)[C@@H]1O (stereo partly drawn) [SAM, S-Adenosyl-L-methionine]
Km ([1]; read-out: Km of CamA for SAM, Michaelis–Menten, varying SAM (Figure 2E)): 25 µM
Km [10]: > 17 µM
Km [11]: 1 µM

Now from value to compound, other results behind:

inhibition of CamA activity at single concentration [1]: ~60%
Structure (SMILES): N=C(NCCCSC[C@H]1O[C@@H](n2cnc3c(N)ncnc32)[C@H](O)[C@@H]1O)NC1CCCCC1 [6d]

inhibition of CamA activity at single concentration [1]: ~85%
inhibition of CamA activity (selectivity panel) [1]: ≥ 80%
fold improved potency of CamA inhibition relative to SGC0946 ([1]; ratio of IC50 values): > 3 ×
fold weaker inhibition of CamA than of PRMT1 ([1]; ratio of IC50 values CamA vs PRMT1): 12.5 ×
fold stronger inhibition of CamA than of PRMT3 ([1]; ratio of IC50 values CamA vs PRMT3): > 4 ×
pIC50 [2]: 5.19
inhibition at 10 µM [3]: ≤ 50%
inhibition at 10 µM [4]: ≤ 50%
pIC50 [5]: < 5.00
inhibition at 10 µM [5]: ~50%
inhibition at 10 µM [6]: ~50%
inhibition at 10 µM [7]: ≤ 50%
inhibition at 10 µM [8]: ≤ 50%
Structure (SMILES): N=C(NCCCSC[C@H]1O[C@@H](n2cnc3c(N)ncnc32)[C@H](O)[C@@H]1O)NCC1CCCCC1 [6e]

pIC50 [1]: 6.57
fold difference in CamA inhibition between 11a and 11b [1]: 1.8 ×
pIC50 [9]: 5.92
fold reduction of PRMT1 inhibition from that of 6e ([9]; ratio of IC50 values): 10 ×
fold stronger inhibition of PRMT1 than 11a ([9]; ratio of IC50 values): > 11 ×
inhibition at 10 µM [3]: ≤ 50%
inhibition at 10 µM [4]: ≤ 50%
inhibition at 10 µM [5]: ≤ 50%
inhibition at 10 µM [6]: ~50%
inhibition at 10 µM [7]: ≤ 50%
inhibition at 10 µM [8]: ≤ 50%
Structure (SMILES): N=C(NCCCSC[C@H]1O[C@@H](n2cnc3c(NCCCc4ccccc4)ncnc32)[C@H](O)[C@@H]1O)NCC1CCCCC1 [11b]

inhibition of CamA compared with compounds 1–3 (in words) ([1]; 10 μM, Figure 1B, also ref 31): much weaker inhibition
Structure (SMILES): Nc1ncnc2c1ccn2[C@@H]1O[C@H]([C@H](O)c2ccccc2)[C@@H](O)[C@H]1O [LLY-283, reference compound]

inhibition at 10 µM [3]: ≤ 50%
inhibition at 10 µM [4]: ≤ 50%
inhibition at 10 µM [5]: ≤ 50%
inhibition at 10 µM [6]: ≤ 50%
inhibition at 10 µM [7]: ≤ 50%
inhibition at 10 µM [8]: ≤ 50%
Structure (SMILES): OC[C@H]1O[C@@H](n2cnc3c(NCCCc4ccccc4)ncnc32)[C@H](O)[C@@H]1O [compound 7, N6-phenylpropyladenosine]
inhibition of PRMT1 (in words) [9]: does not significantly inhibit; also recorded: inhibits neither
inhibition of PRMT3 (in words) [2]: does not significantly inhibit; also recorded: inhibits neither
